# Source: patent EP1935887A1, “Heterocyclic substituted carbonyl derivatives and their use as dopamine D3 receptor ligands” (Aventis Pharmaceuticals Inc., priority 2001, dated 2002)
# Biological target: T1, Cloned Human Dopamine D3 Receptors (Homo sapiens, UniProt P35462)
# T1 construct: expressed in transfected cells; membrane homogenate
# Test: [N-Methyl-3H]Spiroperidol binding to cloned human dopamine D3 receptors
# Details: Table 2; unit inferred; read-out: d3Ki
# Procedure, shortened: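 Membranes from CHO cells stably expressing human D3 receptor, homogenised in 10% DMSO and stored at -80°C. Binding uses [N-methyl-3H]spiroperidol in Tris buffer, pH 7.7.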
# T1 sequence (P35462 whole entry): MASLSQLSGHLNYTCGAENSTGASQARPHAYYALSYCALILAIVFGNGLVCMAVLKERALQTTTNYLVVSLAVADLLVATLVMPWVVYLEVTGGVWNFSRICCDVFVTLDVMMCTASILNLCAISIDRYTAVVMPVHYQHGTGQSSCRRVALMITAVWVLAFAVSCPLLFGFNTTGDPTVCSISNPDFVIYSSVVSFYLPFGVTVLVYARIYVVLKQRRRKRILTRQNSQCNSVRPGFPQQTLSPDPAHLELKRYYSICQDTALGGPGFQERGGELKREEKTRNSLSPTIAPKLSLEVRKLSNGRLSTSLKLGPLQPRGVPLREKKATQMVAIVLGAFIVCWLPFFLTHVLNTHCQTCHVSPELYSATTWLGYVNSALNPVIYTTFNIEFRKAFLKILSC
row,Ki,Structure (SMILES)
1,454 nM,CCOC(=O)[C@H]1CC[C@H](NC(=O)CCCN2CCN(c3csc4cc(C(F)(F)F)ccc34)CC2CCc2ccccc2)CC1 (some centres unmarked) [compound 827071]
2,267 nM,CN(C(=O)CCCN1CCN(c2csc3cc(C(F)(F)F)ccc23)CC1CCc1ccccc1)C1CCCCC1 (centres unmarked) [compound 827074]
3,126 nM,CN(C(=O)CCCN1CCN(c2csc3cc(C(F)(F)F)ccc23)CC1CCCc1ccccc1)C1CCCCC1 (centres unmarked) [compound 827079]
4,117 nM,C[C@H]1CC[C@H](NC(=O)CCCN2CCN(c3csc4cc(F)ccc34)CC2CCCc2ccccc2)CC1 (some centres unmarked) [compound 827105]

# Second part, the compound before the results:
row,Structure (SMILES),Ki
1,CCOC(=O)C1CCC(NC(=O)CCCN2CCN(c3csc4cc(F)ccc34)CC2Cc2ccccc2)CC1 (centres unmarked) [compound 827086],334 nM
2,CCC1CCC(NC(=O)CCCN2CCN(c3csc4cc(F)ccc34)CC2Cc2ccccc2)CC1 (centres unmarked) [compound 827087],178 nM
3,CC1CCCC(NC(=O)CCCN2CCN(c3csc4cc(F)ccc34)CC2Cc2ccccc2)C1 (centres unmarked) [compound 827088],284 nM
4,CN(C(=O)CCCN1CCN(c2csc3cc(F)ccc23)CC1Cc1ccccc1)C1CCCCC1 (centres unmarked) [compound 827089],307 nM
5,CCN(C(=O)CCCN1CCN(c2csc3cc(F)ccc23)CC1Cc1ccccc1)C1CCCCC1 (centres unmarked) [compound 827090],346 nM
6,O=C(CCCN1CCN(c2csc3cc(F)ccc23)CC1Cc1ccccc1)NC1CCCC1 (centres unmarked) [compound 827101],148 nM
7,O=C(CCCN1CCN(c2csc3cc(F)ccc23)CC1Cc1ccccc1)NC1CCCCC1 (centres unmarked) [compound 827102],218 nM
8,CCOC(=O)C1CCC(NC(=O)CCCN2CCN(c3csc4cc(F)ccc34)CC2CCCc2ccccc2)CC1 (centres unmarked) [compound 827106],317 nM
9,CC[C@H]1CC[C@H](NC(=O)CCCN2CCN(c3csc4cc(F)ccc34)CC2CCCc2ccccc2)CC1 (some centres unmarked) [compound 827107],489 nM

# Same assay, conditions: Table 2 part the 10th table; read-out: d3Ki
row,Ki,Structure (SMILES)
1,168 nM,CC1CCN(C(=O)CCCN2CCN(c3csc4cc(C(F)(F)F)ccc34)CC2Cc2ccccc2)CC1 (centres unmarked) [compound 827065]
2,209 nM,CC1CCCN(C(=O)CCCN2CCN(c3csc4cc(C(F)(F)F)ccc34)CC2Cc2ccccc2)C1 (centres unmarked) [compound 827066]
3,268 nM,O=C(CCCN1CCN(c2csc3cc(C(F)(F)F)ccc23)CC1Cc1ccccc1)N1CCC(N2CCCC2)CC1 (centres unmarked) [compound 827067]
4,197 nM,CC1(C)CCCN(C(=O)CCCN2CCN(c3csc4cc(C(F)(F)F)ccc34)CC2Cc2ccccc2)C1 (centres unmarked) [compound 827068]
5,303 nM,CCOC(=O)C1CCN(C(=O)CCCN2CCN(c3csc4cc(C(F)(F)F)ccc34)CC2CCCc2ccccc2)CC1 (centres unmarked) [compound 827082]
6,266 nM,CC1CCCCN1C(=O)CCCN1CCN(c2csc3cc(C(F)(F)F)ccc23)CC1CCCc1ccccc1 (centres unmarked) [compound 827084]
7,34.6 nM,CC1CCCCN1C(=O)CCCN1CCN(c2csc3cc(F)ccc23)CC1Cc1ccccc1 (centres unmarked) [compound 827094]
8,81.7 nM,CC1CCCN1C(=O)CCCN1CCN(c2csc3cc(F)ccc23)CC1Cc1ccccc1 (centres unmarked) [compound 827103]

# The next lines start with the compound.
row,Structure (SMILES),Ki
1,O=C(CCCN1CCN(c2csc3cc(F)ccc23)CC1Cc1ccccc1)N1CCC(O)CC1 (centres unmarked) [compound 827093],84 nM
2,CC1CCN(C(=O)CCCN2CCN(c3csc4cc(F)ccc34)CC2Cc2ccccc2)CC1 (centres unmarked) [compound 827095],37.8 nM
3,CC1CCCN(C(=O)CCCN2CCN(c3csc4cc(F)ccc34)CC2Cc2ccccc2)C1 (centres unmarked) [compound 827096],44.7 nM
4,O=C(CCCN1CCN(c2csc3cc(F)ccc23)CC1Cc1ccccc1)N1CCC(N2CCCC2)CC1 (centres unmarked) [compound 827097],51.5 nM
5,CC1(C)CCCN(C(=O)CCCN2CCN(c3csc4cc(F)ccc34)CC2Cc2ccccc2)C1 (centres unmarked) [compound 827098],82.9 nM
6,CC1CC(C)CN(C(=O)CCCN2CCN(c3csc4cc(F)ccc34)CC2Cc2ccccc2)C1 (centres unmarked) [compound 827099],144 nM
7,O=C(CCCN1CCN(c2csc3cc(F)ccc23)CC1Cc1ccccc1)N1CCCC1 (centres unmarked) [compound 827100],63.5 nM
8,CN(C)C1CCN(C(=O)CCCN2CCN(c3csc4cc(F)ccc34)CC2Cc2ccccc2)C1 (centres unmarked) [compound 827104],141 nM
